# Measurements from patent US20240262817A1, “QUINAZOLINE DERIVATIVES TARGETING R(CCUG) REPEATS IN MYOTONIC DYSTROPHY TYPE 2” (University of Florida Research Foundation, Incorporated, priority 2021, published 2024).
# Tested on: r(CCUG)12-MBNL1 complex
# Experiment: TR-FRET assay, disruption of pre-formed r(CCUG)12-MBNL1 complex
# Type: biochemical
# Conditions: in vitro, read-out: IC50 for disrupting an r(CCUG)12-MBNL1 complex
# From the text: Of the 44 hits, 38 contained a similar substituted N2-phenylquinazoline-2,4-diamine core, while the other hits contained benzimidazoles and indazoles (Figure S2). Importantly, these 44 compounds are drug-like as they have similar physicochemical properties to the rest of the library and to known-drugs in Drug Bank (FIG. 2A). On average, the 44 hit compounds have a molecular weight of 327±35 g/mol, a cLogP of 3.2±0.9. TPSA of 76±15 Å, and 2.5±0.9 hydrogen bond donors. The in vitro potencies (IC50s) of the 44 compounds were then measured in the TR-FRET assay, affording seven compounds (1-7) with IC50s <50 μM (highlighted in red in FIGS. 2B & 2C).
# In vitro IC50 measurements: IC50 measurements for disruption of r(CCUG)12-MBNL1 complex was completed using a previously reported TR-FRET assay with minor modifications.^23, 24 Briefly, 5′-biotinylated r(CCUG)12 (SEQ ID NO: 15) was folded in 1× Folding Buffer (20 mM HEPES, pH 7.5, 110 mM KCl, and 10 mM NaCl) at 60° C. for 5 min then cooled to room temperature. The buffer was adjusted to 1× Assay Buffer (20 mM HEPES, pH 7.5, 110 mM KCl, 10 mM NaCl, 2 mM MgCl2, 2 mM CaCl2), 5 mM DTT. 0.1% BSA, and 0.5% Tween-20).
# Next, MBNL1-His6 was added, and the samples were incubated at room temperature for 15 min. […] The samples were incubated for 30 min at room temperature and added to a white 384-well plate, where TR-FRET was measured on a Molecular Devices SpectraMax M5 plate reader using an excitation wavelength of 345-nm and a 420-nm cutoff. The ratios of fluorescence intensity at 545 and 665 nm were calculated, and ratios in the absence of a compound and in the absence of RNA were used to calculate percent disruption. […]
# [formula] • where y is ratio of fluorescence intensities at 545 nm and 665 nm (F545/F665), x is the concentration of a compound, B is F545/F665 value at max FRET effect (solution has RNA and protein but no compound added); A is F545/F665 value at min FRET effect (solution has antibodies but no RNA, protein, or compound); and the IC50 is the concentration of a compound where half of the protein is displaced by a compound.
compound,measurement,value
"Cc1ccc2nc(Nc3ccc4nc(C)sc4c3)nc(NCCCO)c2c1 [Compound 63, 3-((6-methyl-2-((2-methylbenzo[d]thiazol-6-yl)amino)quinazolin-4-yl)amino)propan-1-ol]",IC50,2200 ± 500 nM
